The target of one test is DRB1*0301 (DR3) (Homo sapiens, UniProt P01903+P01911, A100K/A102G/A103R/A169T/F55Y/I96L/K41T/L162R/M171V/P40S/Q125H/Q178H/Q39Y/R42S/S66N/T106N/T262R/W38E/Y61H). In words: HLA class II peptide binding assay, purified HLA. The settings on record: unit not given.
Test [1] concerns HLA-DR molecules (DR1, DR4w4, DR7, DRB5*0101, DRB1*1501, DRB1*1101, DRB1*0802, DRB1*1302). In words: DR supertype cross-reactive binding. As to conditions: for DR147 Cross-binding: number of DR1, DR4w4, DR7 bound, Table XXVIII. On the set-up: species or system human.
Setting [2] is: Table XXa, DR 3a motif peptides.
[3] abbreviates: Table XIX, DR supermotif peptides.

Where no end group is shown, it is not given here.

On DRB1*0301 (DR3) (setting [2]), LVTYNTDTFESMPNP returned a DR3 binding data of −0.0027.

With NKEILDEAYVMAGVG, at DRB1*0301 (DR3) (setting [2]), the DR3 binding data is recorded as 0.0047.

As for ETEYHADGGKVPIKW, at DRB1*0301 (DR3) (setting [2]), the DR3 binding data is given as −0.0027.

As for `CC(C)C[C@H](NC(=O)[C@@H](NC(=O)[C@H](CCC(=O)O)NC(=O)[C@H](Cc1ccccc1)NC(=O)[C@@H](NC(=O)[C@H](CCC(N)=O)NC(=O)[C@H](CC(C)C)NC(=O)[C@H](CCC(N)=O)NC(=O)[C@H](CCC(=O)O)NC(=O)[C@@H]1CCCN1C(=O)[C@H](CCC(N)=O)NC(=O)[C@H](CC(C)C)NC(=O)[C@@H]1CCCN1C(=O)[C@H](C)NC(=O)[C@@H](N)[C@@H](C)O)C(C)C)[C@@H](C)O)C(=O)O`, the DR3 binding data on DRB1*0301 (DR3) (setting [3]) is recorded as 0.0023.

Consider `CC(C)C[C@H](NC(=O)[C@@H]1CCCN1C(=O)[C@H](C)NC(=O)[C@@H](NC(=O)[C@H](CC(N)=O)NC(=O)[C@H](CO)NC(=O)[C@H](C)NC(=O)[C@@H]1CCCN1C(=O)[C@H](CC(=O)O)NC(=O)CNC(=O)[C@H](CC(=O)O)NC(=O)[C@H](Cc1ccccc1)NC(=O)[C@H](CO)NC(=O)[C@H](CCC(=O)O)NC(=O)[C@@H]1CCCN1)[C@@H](C)O)C(=O)O`, for which the DR3 binding data at DRB1*0301 (DR3) (setting [3]) and at DRB1*0301 (DR3) (setting [2]) was −0.0027 throughout.

On to NQEVTAEDGTQRCEK, for which the DR3 binding data on DRB1*0301 (DR3) (setting [2]) is recorded as −0.0027.

Turning to `CC[C@H](C)[C@H](NC(=O)[C@@H](NC(=O)[C@@H](NC(=O)[C@H](Cc1ccccc1)NC(=O)[C@H](CCCNC(=N)N)NC(=O)[C@H](CCC(N)=O)NC(=O)[C@@H]1CCCN1C(=O)[C@H](CC(=O)O)NC(=O)[C@H](CCCNC(=N)N)NC(=O)[C@H](C)NC(=O)[C@H](CCSC)NC(=O)[C@H](CCCNC(=N)N)NC(=O)[C@H](CO)NC(=O)[C@@H](N)Cc1ccccc1)C(C)C)C(C)C)C(=O)N[C@@H](CCC(N)=O)C(=O)O`, the DR3 binding data at DRB1*0301 (DR3) (setting [2]) was determined as 0.1600.

Consider `CC(C)C[C@H](NC(=O)[C@@H]1CCCN1C(=O)[C@@H](NC(=O)[C@@H](NC(=O)[C@@H]1CCCN1C(=O)[C@H](CC(=O)O)NC(=O)[C@H](CCC(=O)O)NC(=O)[C@H](CO)NC(=O)[C@H](Cc1ccc(O)cc1)NC(=O)[C@H](CCCNC(=N)N)NC(=O)[C@H](CCC(N)=O)NC(=O)[C@@H](N)CC(C)C)[C@@H](C)O)C(C)C)C(=O)N1CCC[C@H]1C(=O)N[C@@H](CO)C(=O)N[C@@H](CCC(=O)O)C(=O)O`, for which the DR3 binding data at DRB1*0301 (DR3) (setting [3]) and on DRB1*0301 (DR3) (setting [2]) was 0.0270 throughout.

At DRB1*0301 (DR3) (setting [2]), SLAFLPESFDGDPAS gave a DR3 binding data of −0.0027.

With `CSCC[C@H](NC(=O)CNC(=O)[C@H](CC(C)C)NC(=O)CNC(=O)[C@H](Cc1ccc(O)cc1)NC(=O)[C@@H](N)CS)C(=O)N[C@@H](CCC(=O)O)C(=O)N[C@@H](Cc1c[nH]cn1)C(=O)N[C@@H](CC(C)C)C(=O)N[C@@H](CCCNC(=N)N)C(=O)N[C@@H](CCC(=O)O)C(=O)N[C@H](C(=O)N[C@@H](CCCNC(=N)N)C(=O)N[C@@H](C)C(=O)N[C@H](C(=O)O)C(C)C)C(C)C`, the DR3 binding data at DRB1*0301 (DR3) (setting [3]) and on DRB1*0301 (DR3) (setting [2]) was 0.0083 each time.

As for DLTLGLEPSEEEAPR, the DR3 binding data on DRB1*0301 (DR3) (setting [3]) and at DRB1*0301 (DR3) (setting [2]) was −0.0025 throughout.

With `CC[C@H](C)[C@H](NC(=O)[C@@H](NC(=O)[C@H](CS)NC(=O)[C@@H](NC(=O)[C@@H]1CCCN1C(=O)[C@@H]1CCCN1C(=O)[C@H](CCC(N)=O)NC(=O)[C@@H]1CCCN1C(=O)[C@H](CC(C)C)NC(=O)[C@H](CCCNC(=N)N)NC(=O)[C@H](CCC(=O)O)NC(=O)CN)[C@@H](C)CC)[C@@H](C)O)C(=O)N[C@@H](CC(=O)O)C(=O)N[C@H](C(=O)N[C@@H](Cc1ccc(O)cc1)C(=O)O)C(C)C`, in test [1], the “DR147 Cross-binding” value is 0.

Take SLSFLQDIQEVQGYV: on DRB1*0301 (DR3) (setting [2]), the DR3 binding data was determined as 0.0520.

As for TAPLQPEQLQVEETL, the DR3 binding data with DRB1*0301 (DR3) (setting [2]) was 0.0023.

In the case of `CSCC[C@H](NC(=O)[C@H](CC(=O)O)NC(=O)[C@H](CC(=O)O)NC(=O)[C@H](CC(=O)O)NC(=O)[C@H](CCC(=O)O)NC(=O)[C@H](CC(C)C)NC(=O)[C@H](CC(C)C)NC(=O)[C@H](CO)NC(=O)[C@H](CCCNC(=N)N)NC(=O)[C@@H](N)Cc1ccc(O)cc1)C(=O)NCC(=O)N[C@@H](CC(=O)O)C(=O)N[C@@H](CC(C)C)C(=O)N[C@H](C(=O)N[C@@H](CC(=O)O)C(=O)O)C(C)C`, the DR3 binding data on DRB1*0301 (DR3) (setting [2]) turned out to be 0.0630.

KNGVVKDVFAFGGAV: the DR3 binding data on DRB1*0301 (DR3) (setting [2]) is on record as −0.0025.

With `CC[C@H](C)[C@H](NC(=O)CNC(=O)[C@@H](NC(=O)[C@@H](NC(=O)[C@H](C)NC(=O)[C@H](CO)NC(=O)[C@@H](NC(=O)[C@@H](NC(=O)[C@H](CO)NC(=O)[C@@H](NC(=O)[C@@H](N)CC(C)C)[C@@H](C)O)[C@@H](C)CC)[C@@H](C)CC)C(C)C)C(C)C)C(=O)N[C@@H](CC(C)C)C(=O)N[C@@H](CC(C)C)C(=O)N[C@H](C(=O)N[C@H](C(=O)O)C(C)C)C(C)C`, the “DR147 Cross-binding” value in test [1] turned out to be 1.

For the compound `CSCC[C@H](NC(=O)[C@H](CC(=O)O)NC(=O)[C@H](CC(=O)O)NC(=O)[C@H](CC(=O)O)NC(=O)[C@H](CCC(=O)O)NC(=O)[C@H](CC(C)C)NC(=O)[C@H](CC(C)C)NC(=O)[C@H](CO)NC(=O)[C@@H](N)CCCNC(=N)N)C(=O)NCC(=O)N[C@@H](CC(=O)O)C(=O)N[C@@H](CC(C)C)C(=O)N[C@H](C(=O)N[C@@H](CC(=O)O)C(=O)N[C@@H](C)C(=O)O)C(C)C`, the DR3 binding data at DRB1*0301 (DR3) (setting [3]) and at DRB1*0301 (DR3) (setting [2]) was 0.0080 each time.

As for FVVIQNEDLGPASPL, the DR3 binding data on DRB1*0301 (DR3) (setting [3]) and on DRB1*0301 (DR3) (setting [2]) was −0.0025 each time.

As for `CC(C)C[C@H](NC(=O)CNC(=O)[C@H](Cc1c[nH]c2ccccc12)NC(=O)[C@@H](N)CCCNC(=N)N)C(=O)N[C@@H](CC(C)C)C(=O)N[C@@H](CC(C)C)C(=O)N[C@@H](C)C(=O)N[C@@H](CC(C)C)C(=O)N[C@@H](CC(C)C)C(=O)N1CCC[C@H]1C(=O)N1CCC[C@H]1C(=O)NCC(=O)N[C@@H](C)C(=O)N[C@@H](C)C(=O)N[C@@H](CO)C(=O)O`, the “DR147 Cross-binding” value in test [1] was 2. In test [1] (number of the 8 DR alleles bound), the “Broad Binding (5/8)” value is recorded as 6.

In the case of `CC(C)C[C@H](NC(=O)[C@H](CCC(N)=O)NC(=O)[C@H](CC(=O)O)NC(=O)[C@H](Cc1c[nH]c2ccccc12)NC(=O)[C@@H]1CCCN1C(=O)[C@@H](NC(=O)[C@@H](NC(=O)[C@H](Cc1c[nH]cn1)NC(=O)[C@@H](N)C(C)C)[C@@H](C)O)C(C)C)C(=O)N[C@@H](Cc1ccccc1)C(=O)N[C@@H](CCCNC(=N)N)C(=O)N[C@@H](CC(N)=O)C(=O)N1CCC[C@H]1C(=O)N[C@@H](Cc1c[nH]cn1)C(=O)N[C@@H](CCC(N)=O)C(=O)O`, the DR3 binding data at DRB1*0301 (DR3) (setting [3]) and on DRB1*0301 (DR3) (setting [2]) was 0.0220 in each case.

As to MRRLLQETELVEPLT, the DR3 binding data at DRB1*0301 (DR3) (setting [2]) is −0.0027.

In turn, DTILWKDIFHKNNQL had a DR3 binding data on DRB1*0301 (DR3) (setting [2]) of −0.0027.

`CSCC[C@H](NC(=O)[C@H](CCCNC(=N)N)NC(=O)[C@H](CO)NC(=O)[C@H](Cc1ccccc1)NC(=O)[C@H](CCC(=O)O)NC(=O)[C@H](CO)NC(=O)[C@@H](NC(=O)[C@H](CC(C)C)NC(=O)[C@H](CCC(=O)O)NC(=O)[C@H](CCCNC(=N)N)NC(=O)[C@@H](N)Cc1ccccc1)C(C)C)C(=O)N[C@@H](C)C(=O)N[C@@H](CCCNC(=N)N)C(=O)N[C@@H](CC(=O)O)C(=O)N1CCC[C@H]1C(=O)O`: the DR3 binding data at DRB1*0301 (DR3) (setting [3]) and at DRB1*0301 (DR3) (setting [2]) was 0.0710 in each case.

In the case of DNLYYWDQDPPERGA, on DRB1*0301 (DR3) (setting [2]), the DR3 binding data was −0.0025.

At DRB1*0301 (DR3) (setting [2]), TVPLPSETDGYVAPL yielded a DR3 binding data of −0.0025.
